Data as given in US5378706A, “Fused-thiazole derivatives active on the cholinergic system, and pharmaceutical compositions containing same” (Sanofi, priority 1987, dated 1995).
Read-outs that look alike come from different tables or passages of the source.

How the values were obtained:
[1] = target: T1, M1 -type muscarinic cholinergic receptor (Rattus norvegicus, UniProt P08482); assay: biochemical; type: binding; settings: for ratio R of the IC50 values for the M1 and M2 receptors: selectivity, values correspond to IC50 M2 / IC50 M1
T1 sequence (P08482 1-460): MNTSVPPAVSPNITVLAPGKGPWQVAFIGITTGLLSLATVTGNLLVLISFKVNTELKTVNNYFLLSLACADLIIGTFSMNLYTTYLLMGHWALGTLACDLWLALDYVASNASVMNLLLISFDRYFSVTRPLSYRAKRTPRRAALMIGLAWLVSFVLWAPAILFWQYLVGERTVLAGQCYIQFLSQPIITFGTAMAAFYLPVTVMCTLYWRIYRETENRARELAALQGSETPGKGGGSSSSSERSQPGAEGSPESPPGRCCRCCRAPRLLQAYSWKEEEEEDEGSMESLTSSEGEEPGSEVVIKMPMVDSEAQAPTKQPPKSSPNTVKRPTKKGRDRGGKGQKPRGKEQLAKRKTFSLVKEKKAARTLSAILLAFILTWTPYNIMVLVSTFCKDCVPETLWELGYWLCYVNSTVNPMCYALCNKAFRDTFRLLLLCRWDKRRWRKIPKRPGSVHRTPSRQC
Experimental: The interaction of the molecules with the M1 -type muscarinic receptors was studied by in vitro measurement, on a rat hippocampus homogenate, of the displacement of tritiated pirenzepine from its specific binding sites. Aliquots (10 μl) of a 5% (w/v) rat hippocampus homogenate in an Na2 HPO4 buffer (50 mM, pH 7.40) are incubated for 2 hours at 4° C. in the presence of ^3 H-PZ (76 Ci/mmol; final concentration 1 nM) and increasing concentrations of the test product. The final volume is 2 ml. The reaction is stopped by centrifugation for 10 minutes at 50,000×g. After decantation and washing of the residues, the bound radioactivity is counted by liquid scintillation. The non-specific binding is determined in the presence of 10 μM atropine sulfate.

[2] = target: T2, M2 -type muscarinic cholinergic receptor (Cavia porcellus, UniProt H0VRN8); assay: Affinity for the M2-type muscarinic cholinergic receptor, displacement of tritiated N-methylscopolamine (3H-NMS) on smooth guinea-pig ileum muscle homogenate; type: binding
T2 construct: on a smooth guinea-pig ileum muscle homogenate; from tissue; host or cells: guinea-pig ileum smooth muscle homogenate
T2 sequence (H0VRN8 1-466): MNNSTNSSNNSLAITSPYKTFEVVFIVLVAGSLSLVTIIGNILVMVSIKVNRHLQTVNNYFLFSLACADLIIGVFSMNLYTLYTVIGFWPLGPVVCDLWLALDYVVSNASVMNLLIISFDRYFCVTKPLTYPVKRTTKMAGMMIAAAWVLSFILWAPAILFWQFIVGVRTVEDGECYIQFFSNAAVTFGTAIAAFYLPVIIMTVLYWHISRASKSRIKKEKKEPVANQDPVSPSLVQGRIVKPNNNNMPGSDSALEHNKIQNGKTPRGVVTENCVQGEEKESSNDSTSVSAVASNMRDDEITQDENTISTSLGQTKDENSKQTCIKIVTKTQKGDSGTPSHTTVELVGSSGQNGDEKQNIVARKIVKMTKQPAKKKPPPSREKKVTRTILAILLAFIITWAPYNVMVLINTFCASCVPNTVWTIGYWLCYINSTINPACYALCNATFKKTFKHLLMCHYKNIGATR
Experimental: The M1 -type receptors are concentrated in certain regions of the brain, such as the hippocampus, the cerebral cortex and the striatum, and also in the sympathetic ganglia. These binding sites can be selectively labeled with tritiated pirenzepine (^3 H-PZ). The M2 -type receptors predominate in the heart and the ileum and can be labeled with tritiated N-methyl-scopolamine (^3 H-NMS). The selectivity of the products of the invention with respect to the M1 and M2 sites was determined by studying their in vitro interaction with ^3 H-PZ and ^3 H-NMS firmly bound with a high affinity to rat hippocampus membranes and smooth guinea-pig ileum muscle, respectively.
The interaction with the M2 -type muscarinic receptors was studied by in vitro measurement, on a smooth guinea-pig ileum muscle homogenate, of the displacement of tritiated N-methylscopolamine from its specific binding sites. […] The final volume is 1 ml. The reaction is stopped by centrifugation for 5 minutes at 15,000×g. The non-specific binding is determined in the presence of 10 mM atropine sulfate.
The IC50 for ^3 H-PZ displacement represents the affinity for the M1 receptor; the IC50 for ^3 H-NMS displacement represents the affinity for the M2 receptor.

[3] = test system: M1 central muscarinic cholinergic receptors; assay: Antagonism of rotations induced by intrastriatal injection of pirenzepine in mice; type: in vivo, mice (Swiss, CD 1); settings: for Pirenzepine antagonism ED50 i.p.: 15 minutes before intrastriatal pirenzepine 1 μg; for Pirenzepine antagonism ED50 p.o.: 30 minutes before intrastriatal pirenzepine 1 μg
Experimental: Pirenzepine (PZ) is a specific antagonist of the M1 central muscarinic cholinergic receptors. The intrastriatal injection of PZ into mice induces rotatory behavoir. The antagonism of this behavoir by the products according to the invention was studied.
The products according to the invention are administered either intraperitoneally (i.p.) or orally (p.o.) after solubilization in distilled water or suspension in a 5% solution of gum arabic. The control animals receive the pure solvent under the same conditions.
The animals used are female mice (Swiss, CD 1, Charles River, France) with a body weight of between 25 and 30 grams.
The pirenzepine is dissolved in a phosphate buffer and the pH of the solution is 6.
The test products or their solvents are administered in a volume of 0.4 ml per 20 g of body weight, either by i.p. injection or orally via an esophageal tube.
The number of contralateral rotations (rotations in the opposite direction to the side injected) was counted for three 2-minute periods after injection of the pirenzepine: 2nd to 4th, 8th to 10th and 13th to 15th minutes. Each treatment consists of 3 to 4 doses and 10 animals per dose. The total number of rotations and the percentage antagonism with respect to the control group are calculated for each treatment.

[4] = Acute toxicity, 24 hours mortality after i.p. administration to mice; settings: mouse, in vivo, ip, female mice, 20 g
Experimental: Finally, the acute toxicity was determined for various products according to the invention. The products were administered intraperitoneally in increasing doses to groups of 10 female mice (Swiss, CD 1, Charles River, France) with a body weight of 20 g.

[5] = guinea-pig ileum smooth muscle homogenate, 3H-NMS 0.3 nM, 20 minutes at 30° C., pH 7.5, read-out: IC50 3H-NMS (M2)
[6] = rat hippocampus homogenate, 3H-PZ 1 nM, 2 hours at 4° C., pH 7.40, read-out: IC50 3H-PZ (M1)

Cc1sc(NCCCN)nc1-c1ccccc1.Cl.Cl [SR 44514 A, 2-[(3-Aminopropyl)amino]-5-methyl-4-phenylthiazole dihydrochloride]
IC50 ([1]; read-out: IC50 3H-PZ (M1)): 0.5 µM
ratio R of the IC50 values for the M1 and M2 receptors [1]: > 200
IC50 [2, 5]: > 100 µM
Pirenzepine antagonism ED50 i.p. [3]: 3 mg/kg

CCN(CC)CCNc1nc2c(s1)CCCc1ccc([N+](=O)[O-])cc1-2.Cl.Cl [SR 44411 A, 2-[(2-Diethylaminoethyl)amino]-9-nitro-5,6-dihydro-4H-benzo[6,7]cyclohepta[1,2-d]thi azole dihydrochloride]
IC50 ([1]; read-out: IC50 3H-PZ (M1)): 0.9 µM
ratio R of the IC50 values for the M1 and M2 receptors [1]: 7
IC50 [2, 5]: 6.7 µM
Pirenzepine antagonism ED50 i.p. [3]: 15 mg/kg

CCN1CCCC(Nc2nc(-c3c(C)cc(C)cc3C)cs2)C1 (centres unmarked) [SR 44965 A]
IC50 [1, 6]: 1.2 µM
ratio R of the IC50 values for the M1 and M2 receptors [1]: 50
IC50 [2, 5]: 60 µM
Pirenzepine antagonism ED50 p.o. [3]: 3 mg/kg

CN(C)CCCNc1nc(Cc2ccccc2)c(-c2ccccc2)s1 [SR 45016 A]
IC50 [1, 6]: 0.1 µM
ratio R of the IC50 values for the M1 and M2 receptors [1]: 55
IC50 [2, 5]: 5.5 µM
Pirenzepine antagonism ED50 p.o. [3]: 2 mg/kg

Cc1cc(C)c(-c2csc(NCCCN(C)C)n2)c(C)c1 [SR 44421 A]
IC50 [1, 6]: 3.6 µM
ratio R of the IC50 values for the M1 and M2 receptors [1]: > 27
IC50 [2, 5]: > 100 µM
Pirenzepine antagonism ED50 p.o. [3]: 0.2 mg/kg

COC(=O)C1=CCCN(C)C1 [Arecoline, reference compound]
IC50 [2]: 4.5 µM
Pirenzepine antagonism ED50 i.p. [3]: 1 mg/kg
Pirenzepine antagonism ED50 p.o. [3]: 0.5 mg/kg

CCN(CC)CCNc1nc2c(s1)CCCc1ccccc1-2 [SR 44323 A]
IC50 [1, 6]: 1.7 µM
ratio R of the IC50 values for the M1 and M2 receptors [1]: 5
IC50 [2, 5]: 8.5 µM
Pirenzepine antagonism ED50 i.p. [3]: 10 mg/kg

CNCCCNc1nc(-c2c(C)cc(C)cc2C)cs1 [SR 45030 A]
IC50 [1, 6]: 1.6 µM
ratio R of the IC50 values for the M1 and M2 receptors [1]: 50
IC50 [2, 5]: 80 µM
Pirenzepine antagonism ED50 p.o. [3]: 1 mg/kg

Cc1cc(C)c(-c2csc(NCc3cccnc3)n2)c(C)c1 [SR 44839 A]
IC50 [1, 6]: 0.4 µM
ratio R of the IC50 values for the M1 and M2 receptors [1]: 250
IC50 [2, 5]: 100 µM
Pirenzepine antagonism ED50 p.o. [3]: 0.2 mg/kg

CN(C)CCCNc1nc(-c2ccccc2)c(-c2ccccc2)s1 [SR 45015 A]
IC50 [1, 6]: 0.3 µM
ratio R of the IC50 values for the M1 and M2 receptors [1]: 13
IC50 [2, 5]: 4 µM
Pirenzepine antagonism ED50 p.o. [3]: 0.70 mg/kg

CCN(CC)CCCNc1nc2c(s1)CCCc1ccccc1-2 [SR 44326 A]
IC50 [1, 6]: 2.2 µM
ratio R of the IC50 values for the M1 and M2 receptors [1]: > 45
IC50 [2, 5]: > 100 µM
Pirenzepine antagonism ED50 i.p. [3]: 3 mg/kg

CCN(CC)CCNc1nc2c(s1)CCc1ccccc1-2 [SR 44393 A]
IC50 [1, 6]: 2.7 µM
ratio R of the IC50 values for the M1 and M2 receptors [1]: 15
IC50 [2, 5]: 42 µM
Pirenzepine antagonism ED50 i.p. [3]: 3 mg/kg

Cc1cc(C)c(-c2csc(NCCc3ccncc3)n2)c(C)c1 [SR 44856 A]
IC50 [1, 6]: 0.3 µM
ratio R of the IC50 values for the M1 and M2 receptors [1]: > 300
IC50 [2, 5]: > 100 µM
Pirenzepine antagonism ED50 p.o. [3]: 3 mg/kg

Cl.Cl.c1ccc2c(c1)CCc1sc(NCCN3CCOCC3)nc1-2 [SR 44273 A, 2-(2-Morpholinoethylamino)-4,5-dihydronaphtho[1,2-d]thiazole dihydrochloride]
LD50 at 24 h [4]: > 100 mg/kg

CN(C)CCCNc1nc(-c2ccc(F)cc2F)cs1 [SR 44770 A]
IC50 [1, 6]: 0.6 µM
ratio R of the IC50 values for the M1 and M2 receptors [1]: 43
IC50 [2, 5]: 26 µM
Pirenzepine antagonism ED50 p.o. [3]: 3 mg/kg

CCN(CC)CCCNc1ncc(-c2ccccc2)s1 [SR 44346 A]
IC50 [1, 6]: 2 µM
ratio R of the IC50 values for the M1 and M2 receptors [1]: 12.5
IC50 [2, 5]: 25 µM
Pirenzepine antagonism ED50 i.p. [3]: 1 mg/kg

CN(C)CCCNc1nc(-c2ccc(F)cc2)cs1 [SR 44494 A]
IC50 [1, 6]: 0.8 µM
ratio R of the IC50 values for the M1 and M2 receptors [1]: 100
IC50 [2, 5]: 80 µM
Pirenzepine antagonism ED50 p.o. [3]: 2 mg/kg

CN1CCN(CCCNc2nc(-c3ccc(F)cc3)cs2)CC1 [SR 44862 A]
IC50 [1, 6]: 3 µM
ratio R of the IC50 values for the M1 and M2 receptors [1]: 11
IC50 [2, 5]: 34 µM
Pirenzepine antagonism ED50 p.o. [3]: 3 mg/kg

CN(C)CCCNc1nc2c(s1)CCCc1ccccc1-2 [SR 44327 A]
IC50 [1, 6]: 1.9 µM
ratio R of the IC50 values for the M1 and M2 receptors [1]: 20
IC50 [2, 5]: 38 µM
Pirenzepine antagonism ED50 i.p. [3]: 10 mg/kg

CCN(CC)CCCNc1nc(-c2ccc3ccccc3c2)cs1 [SR 44573 A]
IC50 [1, 6]: 1.8 µM
ratio R of the IC50 values for the M1 and M2 receptors [1]: 7
IC50 [2, 5]: 13 µM
Pirenzepine antagonism ED50 p.o. [3]: 2.50 mg/kg

CN(C)CCCNc1nc(-c2ccc(Cl)cc2)cs1 [SR 44493 A]
IC50 [1, 6]: 1.6 µM
ratio R of the IC50 values for the M1 and M2 receptors [1]: 28
IC50 [2, 5]: 45 µM
Pirenzepine antagonism ED50 p.o. [3]: 0.3 mg/kg

CN(C)CCCNc1nc(-c2ccc(Cl)cc2Cl)cs1 [SR 44749 A]
IC50 [1, 6]: 1.8 µM
ratio R of the IC50 values for the M1 and M2 receptors [1]: 14
IC50 [2, 5]: 26 µM
Pirenzepine antagonism ED50 p.o. [3]: 3 mg/kg

CCN(CC)CCNc1ncc(-c2ccccc2)s1.Cl.Cl [SR 44318 A, 2-[(2-Diethylaminoethyl)amino]-5-phenylthiazole dihydrochloride]
IC50 ([1]; read-out: IC50 3H-PZ (M1)): 3.4 µM
ratio R of the IC50 values for the M1 and M2 receptors [1]: 11
IC50 [2, 5]: 38 µM
Pirenzepine antagonism ED50 i.p. [3]: 1.5 mg/kg
Pirenzepine antagonism ED50 p.o. [3]: 3 mg/kg

Cc1ccccc1-c1csc(NCCCN(C)C)n1 [SR 45001 A]
IC50 [1, 6]: 2.6 µM
ratio R of the IC50 values for the M1 and M2 receptors [1]: 11
IC50 [2, 5]: 30 µM
Pirenzepine antagonism ED50 p.o. [3]: 3 mg/kg

O=C1CCCN1CC#CCN1CCCC1 [Oxotremorine, reference compound]
IC50 [1]: 0.24 µM
ratio R of the IC50 values for the M1 and M2 receptors [1]: 1
IC50 [2]: 0.2 µM
Pirenzepine antagonism ED50 i.p. [3]: 0.005 mg/kg

CCN(CC)CCCNc1nc(-c2ccccc2)c(-c2ccccc2)s1 [SR 44435 A]
IC50 [1, 6]: 0.36 µM
ratio R of the IC50 values for the M1 and M2 receptors [1]: 8
IC50 [2, 5]: 3 µM
Pirenzepine antagonism ED50 i.p. [3]: 2 mg/kg

Cc1cc(C)c(-c2csc(NCCCN3CCCC3)n2)c(C)c1 [SR 44964 A]
IC50 [1, 6]: 0.9 µM
ratio R of the IC50 values for the M1 and M2 receptors [1]: 31
IC50 [2, 5]: 28 µM
Pirenzepine antagonism ED50 p.o. [3]: 3 mg/kg

Cc1nc(NCCCN(C)C)sc1-c1ccccc1 [SR 44467 A]
IC50 [1, 6]: 1.5 µM
ratio R of the IC50 values for the M1 and M2 receptors [1]: 25
IC50 [2, 5]: 38 µM
Pirenzepine antagonism ED50 p.o. [3]: 3 mg/kg

Cc1cc(C)c(-c2csc(NCCCN3CCN(C)CC3)n2)c(C)c1 [SR 44915 A]
IC50 [1, 6]: 0.4 µM
ratio R of the IC50 values for the M1 and M2 receptors [1]: 100
IC50 [2, 5]: 40 µM
Pirenzepine antagonism ED50 p.o. [3]: 3 mg/kg
